{"source": "ChEMBL document CHEMBL2074144", "about": "“Pharmacokinetics of erythromycin in rabbit corneas after single-dose infusion: role of P-glycoprotein as a barrier to in vivo ocular drug absorption” (J Pharmacol Exp Ther, 2004)", "molecular_target": "ATP-dependent translocase ABCB1 (Homo sapiens, UniProt P08183)", "sequence (P08183 whole entry)": "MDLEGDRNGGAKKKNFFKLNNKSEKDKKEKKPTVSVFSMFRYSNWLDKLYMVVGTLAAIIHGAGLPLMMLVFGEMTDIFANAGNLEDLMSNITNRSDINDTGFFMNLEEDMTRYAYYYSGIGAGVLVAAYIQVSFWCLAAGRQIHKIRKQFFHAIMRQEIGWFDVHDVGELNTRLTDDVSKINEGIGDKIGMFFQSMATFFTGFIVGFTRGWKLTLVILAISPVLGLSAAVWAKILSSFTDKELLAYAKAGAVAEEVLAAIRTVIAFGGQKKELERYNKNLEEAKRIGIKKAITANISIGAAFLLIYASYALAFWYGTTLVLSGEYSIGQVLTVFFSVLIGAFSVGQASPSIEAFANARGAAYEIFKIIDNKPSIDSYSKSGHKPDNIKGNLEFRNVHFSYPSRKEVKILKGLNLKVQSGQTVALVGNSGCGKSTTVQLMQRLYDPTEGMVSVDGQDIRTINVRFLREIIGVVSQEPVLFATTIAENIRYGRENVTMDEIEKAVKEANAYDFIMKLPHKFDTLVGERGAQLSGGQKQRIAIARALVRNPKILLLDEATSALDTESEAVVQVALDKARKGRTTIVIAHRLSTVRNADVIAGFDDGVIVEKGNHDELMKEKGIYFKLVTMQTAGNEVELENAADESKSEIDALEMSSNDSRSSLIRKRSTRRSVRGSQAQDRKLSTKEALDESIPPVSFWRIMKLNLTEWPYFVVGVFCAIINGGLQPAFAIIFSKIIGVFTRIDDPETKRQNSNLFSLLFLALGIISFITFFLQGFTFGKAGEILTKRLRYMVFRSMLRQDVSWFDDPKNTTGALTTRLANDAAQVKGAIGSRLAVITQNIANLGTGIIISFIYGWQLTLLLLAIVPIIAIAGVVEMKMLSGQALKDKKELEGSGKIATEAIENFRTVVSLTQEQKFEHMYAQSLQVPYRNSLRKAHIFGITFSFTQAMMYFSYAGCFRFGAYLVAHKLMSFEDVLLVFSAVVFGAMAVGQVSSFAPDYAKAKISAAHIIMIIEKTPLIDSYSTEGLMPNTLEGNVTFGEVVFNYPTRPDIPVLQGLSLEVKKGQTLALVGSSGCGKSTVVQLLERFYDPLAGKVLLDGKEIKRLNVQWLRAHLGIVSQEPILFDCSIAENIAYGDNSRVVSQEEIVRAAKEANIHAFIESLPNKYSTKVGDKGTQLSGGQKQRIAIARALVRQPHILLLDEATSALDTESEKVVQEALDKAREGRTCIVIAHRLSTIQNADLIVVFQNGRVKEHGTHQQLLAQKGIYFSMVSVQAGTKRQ", "assay": "TP_TRANSPORTER: transepithelial transport in MDR1-expressing MDCK cells", "type": "functional, cell-based", "details": "dog", "data": [{"smiles": "CC[C@H]1OC(=O)[C@H](C)[C@@H](O[C@H]2C[C@@](C)(OC)[C@@H](O)[C@H](C)O2)[C@H](C)[C@@H](O[C@@H]2O[C@H](C)C[C@H](N(C)C)[C@H]2O)[C@](C)(OC)C[C@@H](C)C(=O)[C@H](C)[C@@H](O)[C@]1(C)O", "note": "[CLARITHROMYCIN]", "values": [{"measurement": "Activity", "value": "substrate [+]"}]}]}
